# From patent US10421715B2, “Pleuromutilin derivative having 2-amino phenyl mercaptan side chain as well as preparation method and application thereof” (SOUTH CHINA AGRICULTURAL UNIVERSITY, priority 2016, dated 2019)
# Like-named read-outs stand apart in the source and are kept apart here.
# Tests used:
# Assay in all cases: In-vitro bacteriostatic experiment, two-fold agar dilution MIC
# Type in all cases: cell-based
# [1] = tested on: E. Coli ATCC25922; details: for MIC: Escherichia coli, read-out: MIC E. coli ATCC25922
# Protocol: (§1) Minimum inhibitory concentrations (MIC) of a series of compounds obtained in the disclosure were measured by using a two-fold agar dilution method. An experimental control drug selected valnemulin, and valnemulin belongs to pleuromutilin antibiotics and is the most widely applied veterinary antibiotic in the pleuromutilin antibiotics at present. By using a multi-point inoculator, bacteria solution was inoculated into a culture dish containing drugs having different concentrations at a bacteria inoculating amount of 10^6 CFU/ml. A result was observed after incubation for 24 hours at 37° C., and the concentration of a compound in a culture dish without bacteria served as the minimum inhibitory concentration (MIC) of this compound.
# (§2) Strains used in the experiment were E. Coli ATCC25922, Staphylococcus aureus ATCC29213, methicillin-resistant staphylococcus ATCC43300 and mycoplasma gallisepticum S6.
# (§3) 25.6 mg of synthesized target compound was precisely weighed to be placed in 10 mL of volumetric flask and dissolved with a small amount of N,N-dimethylformamide and then a volume was metered with N,N-dimethylformamide to 10 mL, so as to prepare 2560 μg/mL stock solution. In addition, 25.6 mg of pleuromutilin, tiamulin, valnemulin and retapamulin were respectively and precisely weighed to be placed in 10 ml of volumetric flask, and a volume was metered with N,N-dimethylformamide to 10 mL, so as to prepare 2560 μg/mL control stock solution.
# (§4) The control stock solution was diluted in a culture dish with a doubling dilution method, each culture dish contained 1 ml of medicine liquid, the medicine liquid is diluted to 20 ml with molten MH agar, so that final concentrations of subject compounds in a series of culture dishes were respectively 64, 32, 16, 8, 4, 2, 1, 0.5, 0.25, 0.125 and 0.0625 μg/ml.
# [2] = tested on: Staphylococcus aureus ATCC29213; details: for MIC: Staphylococcus aureus, read-out: MIC S. aureus ATCC29213
# Protocol: as §1, §2, §3, §4
# [3] = tested on: methicillin-resistant staphylococcus ATCC43300; details: for MIC: read-out: MIC MRSA ATCC43300
# Protocol: as §1, §2, §3, §4
# [4] = tested on: mycoplasma gallisepticum S6; details: for MIC: Mycoplasmoides gallisepticum, read-out: MIC S6
# Protocol: as §1, §2, §3, §4
# [5] = ATCC25922, agar dilution, 10^6 CFU/ml, 24 hours at 37° C.
# [6] = ATCC29213, agar dilution, 10^6 CFU/ml, 24 hours at 37° C.
# [7] = agar dilution, 10^6 CFU/ml, 24 hours at 37° C.
# [8] = mycoplasma gallisepticum S6, agar dilution, 10^6 CFU/ml, 24 hours at 37° C.
Structure (SMILES),"MIC E. coli ATCC25922 [1, 7] [mg/L]","MIC S. aureus ATCC29213 [2, 7] [mg/L]","MIC MRSA ATCC43300 [3, 7] [mg/L]","MIC S6 [4, 8] [mg/L]",other results
"C=C[C@]1(C)C[C@@H](OC(=O)CSCCN(CC)CC)[C@]2(C)[C@H](C)CC[C@]3(CCC(=O)[C@H]32)[C@@H](C)[C@@H]1O [Tiamulin, reference compound]",,,,,"MIC [1, 5]: > 64 mg/L; MIC [2, 6]: 0.5 mg/L; MIC [3, 7]: 0.5 mg/L; MIC [4, 8]: 0.0156 mg/L"
"C=CC1(C)CC(OC(=O)CSc2ccccc2NC(=O)c2ccc(F)cc2)C2(C)C(C)CCC3(CCC(=O)C32)C(C)C1O (centres unmarked) [Compound 6, 22-O-[2-(4-fluorobenzamido)phenyl] thioacetyl valnemulin]",>64,1,1,0.5,
"C=CC1(C)CC(OC(=O)CSc2ccccc2NC(=O)c2ccc(C)cc2)C2(C)C(C)CCC3(CCC(=O)C32)C(C)C1O (centres unmarked) [Compound 3, 22-O-[2-(4-methylbenzamido)phenyl] thioacetyl valnemulin]",>64,0.5,0.5,0.25,
C=C[C@]1(C)C[C@@H](OC(=O)CSc2ccccc2NC(=O)c2ccc(Cl)cc2)[C@]2(C)[C@H](C)CC[C@]3(CCC(=O)[C@H]32)[C@@H](C)[C@@H]1O [Compound 9],>64,0.5,0.5,0.25,
C=C[C@]1(C)C[C@@H](OC(=O)CSc2ccccc2NC(=O)c2ccccc2Cl)[C@]2(C)[C@H](C)CC[C@]3(CCC(=O)[C@H]32)[C@@H](C)[C@@H]1O [Compound 7],>64,0.5,0.5,0.25,
C=C[C@]1(C)C[C@@H](OC(=O)CO)[C@]2(C)[C@H](C)CC[C@]3(CCC(=O)[C@H]32)[C@@H](C)[C@@H]1O [Pleuromutilin],,,,,"MIC [1, 5]: > 64 mg/L; MIC [2, 6]: 1 mg/L; MIC [3, 7]: 0.5 mg/L; MIC [4, 8]: 0.0625 mg/L"
C=C[C@]1(C)C[C@@H](OC(=O)CSc2ccccc2N)[C@]2(C)[C@H](C)CC[C@]3(CCC(=O)[C@H]32)[C@@H](C)[C@@H]1O [Compound 13],,,,,"MIC [1, 5]: > 64 mg/L; MIC [2, 6]: 0.0156 mg/L; antibacterial activity on staphylococcus (in words) ([2]; comparison with control drugs): obviously superior to that of valnemulin and retapamulin; MIC [3, 7]: 0.0156 mg/L; antibacterial activity on methicillin-resistant staphylococcus (in words) ([3]; comparison with control drugs): obviously superior to that of valnemulin and retapamulin; MIC [4, 8]: 0.0156 mg/L"
C=C[C@]1(C)C[C@@H](OC(=O)CSc2ccccc2NC(=O)c2ccccc2C)[C@]2(C)[C@H](C)CC[C@]3(CCC(=O)[C@H]32)[C@@H](C)[C@@H]1O [Compound 1],>64,0.25,0.25,0.125,
"C=C[C@]1(C)C[C@@H](OC(=O)CSC(C)(C)CNC(=O)[C@H](N)C(C)C)[C@]2(C)[C@H](C)CC[C@]3(CCC(=O)[C@H]32)[C@@H](C)[C@@H]1O [Valnemulin, reference compound]",,,,,"MIC ([1]; ATCC25922, 24 h): 32 mg/L; MIC ([2]; ATCC29213, 24 h): 0.0625 mg/L; MIC ([3]; 24 h): 0.0625 mg/L; MIC ([4]; S6, 24 h): 0.0039 mg/L"
"C=CC1(C)CC(OC(=O)CSc2ccccc2NC(=O)c2cccc(OC)c2)C2(C)C(C)CCC3(CCC(=O)C32)C(C)C1O (centres unmarked) [Compound 11, 22-O-[2-(3-methoxybenzamido)phenyl] thioacetyl valnemulin]",>64,1,1,0.25,
"C=C[C@]1(C)C[C@@H](OC(=O)CS[C@@H]2C[C@H]3CC[C@@H](C2)N3C)[C@]2(C)[C@H](C)CC[C@]3(CCC(=O)[C@H]32)[C@@H](C)[C@@H]1O [Retapamulin, reference compound]",,,,,"MIC ([2]; ATCC29213, 24 h): 0.0625 mg/L; MIC ([3]; 24 h): 0.0625 mg/L"
C=C[C@]1(C)C[C@@H](OC(=O)CSc2ccccc2NC(=O)c2ccc(OC)cc2)[C@]2(C)[C@H](C)CC[C@]3(CCC(=O)[C@H]32)[C@@H](C)[C@@H]1O [Compound 12],>64,1,1,0.5,
C=CC1(C)CC(OC(=O)CSc2ccccc2NC(=O)c2ccccc2F)C2(C)C(C)CCC3(CCC(=O)C32)C(C)C1O (centres unmarked) [Compound 4],>64,0.5,0.5,0.25,
"C=CC1(C)CC(OC(=O)CSc2ccccc2NC(=O)c2cccc(Cl)c2)C2(C)C(C)CCC3(CCC(=O)C32)C(C)C1O (centres unmarked) [Compound 8, 22-O-[2-(3-chlorobenzamido)phenyl] thioacetyl valnemulin]",>64,0.25,0.25,0.125,
"C=CC1(C)CC(OC(=O)CSc2ccccc2NC(=O)c2cccc(C)c2)C2(C)C(C)CCC3(CCC(=O)C32)C(C)C1O (centres unmarked) [Compound 2, 22-O-[2-(3-methylbenzamnido)phenyl] thioacetyl valnemulin]",>64,1,0.5,0.25,
"C=CC1(C)CC(OC(=O)CSc2ccccc2NC(=O)c2cccc(F)c2)C2(C)C(C)CCC3(CCC(=O)C32)C(C)C1O (centres unmarked) [Compound 5, 22-O-[2-(3-fluorobenzamido)phenyl] thioacetyl valnemulin]",>64,0.125,0.125,0.125,
"C=CC1(C)CC(OC(=O)CSc2ccccc2NC(=O)c2ccccc2OC)C2(C)C(C)CCC3(CCC(=O)C32)C(C)C1O (centres unmarked) [Compound 10, 22-O-[2-(2-methoxybenzamido)phenyl] thioacetyl valnemulin]",>64,1,0.5,0.25,
